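A five-concentration, 48-hour dose response in 96-well plates underlies each endpoint, interpolated linearly between surrounding concentrations. GI50 is the concentration that inhibits growth by half.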 Activity calls are given as the source filed them. Rule as the data show it: active = GI50 up to about 1.1 µM and inactive = higher.
What was measured:
Assay in all cases: growth of human tumour cells (NCI), 48 h
SF-268 = test system: SF-268
MDA-N = test system: MDA-N
BT-549 = test system: BT-549
SF-295 = test system: SF-295
SN12C = test system: SN12C
HL-60 = test system: HL-60
OVCAR-5 = test system: OVCAR-5
DU-145 = test system: DU-145
U-251 = test system: U-251
MCF7 = test system: MCF7
K562 = test system: K562
NCI-H460 = test system: NCI-H460
RXF 393 = test system: RXF 393
SW-620 = test system: SW-620
OVCAR-4 = test system: OVCAR-4
NCI-H522 = test system: NCI-H522
HCC 2998 = test system: HCC 2998
LOX IMVI = test system: LOX IMVI
HOP-62 = test system: HOP-62
RPMI-8226 = test system: RPMI-8226
UO-31 = test system: UO-31
A549 = test system: A549
COLO 205 = test system: COLO 205
NCI-H226 = test system: NCI-H226
UACC-257 = test system: UACC-257
SK-MEL-5 = test system: SK-MEL-5
KM12 = test system: KM12
CCRF-CEM = test system: CCRF-CEM
PC-3 = test system: PC-3
HOP-92 = test system: HOP-92
SK-MEL-28 = test system: SK-MEL-28
M14 = test system: M14
IGROV-1 = test system: IGROV-1
MDA-MB-435 = test system: MDA-MB-435
HCT-15 = test system: HCT-15
EKVX = test system: EKVX
SK-MEL-2 = test system: SK-MEL-2
HCT-116 = test system: HCT-116
SNB-75 = test system: SNB-75
SNB-19 = test system: SNB-19
MDA-MB-231 = test system: MDA-MB-231
Malme-3M = test system: Malme-3M
ACHN = test system: ACHN
CAKI-1 = test system: CAKI-1
A498 = test system: A498
OVCAR-3 = test system: OVCAR-3
NCI-H23 = test system: NCI-H23
NCI/ADR-RES = test system: NCI/ADR-RES
SR = test system: SR
Hs-578T = test system: Hs-578T
SF-539 = test system: SF-539
HT-29 = test system: HT-29
TK-10 = test system: TK-10
MOLT-4 = test system: MOLT-4
786-0 = test system: 786-0
OVCAR-8 = test system: OVCAR-8

BrC1(c2ccccc2)C[n+]2c(-c3ccccc3)cc(-c3ccccc3)cc2-c2ccccc21 (stereo unspecified)
GI50 (SF-268): 409 nM (active)
GI50 (MDA-N): 327 nM (active)
GI50 (BT-549): 407 nM (active)
GI50 (SF-295): 1030 nM (active)
GI50 (SN12C): 3880 nM (inactive)
GI50 (HL-60): 168 nM (active)
GI50 (OVCAR-5): 1270 nM (inactive)
GI50 (DU-145): 931 nM (active)
GI50 (U-251): 226 nM (active)
GI50 (MCF7): 184 nM (active)
GI50 (K562): 159 nM (active)
GI50 (NCI-H460): 444 nM (active)
GI50 (RXF 393): 183 nM (active)
GI50 (SW-620): 426 nM (active)
GI50 (OVCAR-4): 977 nM (active)
GI50 (NCI-H522): 384 nM (active)
GI50 (HCC 2998): 111 nM (active)
GI50 (LOX IMVI): 363 nM (active)
GI50 (HOP-62): 611 nM (active)
GI50 (RPMI-8226): 127 nM (active)
GI50 (UO-31): 1350 nM (inactive)
GI50 (A549): 929 nM (active)
GI50 (COLO 205): 157 nM (active)
GI50 (NCI-H226): 659 nM (active)
GI50 (UACC-257): 233 nM (active)
GI50 (SK-MEL-5): 197 nM (active)
GI50 (KM12): 299 nM (active)
GI50 (CCRF-CEM): 520 nM (active)
GI50 (PC-3): 346 nM (active)
GI50 (HOP-92): 664 nM (active)
GI50 (SK-MEL-28): 920 nM (active)
GI50 (M14): 499 nM (active)
GI50 (IGROV-1): 289 nM (active)
GI50 (MDA-MB-435): 205 nM (active)
GI50 (HCT-15): 2900 nM
GI50 (EKVX): 457 nM (active)
GI50 (SK-MEL-2): 317 nM (active)
GI50 (HCT-116): 365 nM (active)
GI50 (SNB-75): 236 nM (active)
GI50 (SNB-19): 551 nM (active)
GI50 (MDA-MB-231): 336 nM (active)
GI50 (Malme-3M): 441 nM (active)
GI50 (ACHN): 1420 nM (inactive)
GI50 (CAKI-1): 3660 nM (inactive)
GI50 (A498): 1810 nM (inactive)
GI50 (OVCAR-3): 48.9 nM (active)
GI50 (NCI-H23): 1000 nM (active)
GI50 (NCI/ADR-RES): 17900 nM (inactive)
GI50 (SR): 611 nM (active)
GI50 (Hs-578T): 231 nM (active)
GI50 (SF-539): 764 nM (active)
GI50 (HT-29): 340 nM (active)
GI50 (TK-10): 1730 nM (inactive)
GI50 (MOLT-4): 631 nM (active)
GI50 (786-0): 661 nM (active)
GI50 (OVCAR-8): 360 nM (active)
